Data reported in PubChem BioAssay (NCI).
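Five compound concentrations were applied to cells in 96-well plates for 48 hours; endpoints were derived by simple linear interpolation of the resulting dose-response curve. TGI denotes the concentration required for complete inhibition of growth.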

Tests used:
Test in all cases: NCI tumour cell line growth inhibition, 48 h
786-0 renal = tested on: 786-0 renal
A498 renal = tested on: A498 renal
A549 NSCLC = tested on: A549 NSCLC
ACHN renal = tested on: ACHN renal
BT-549 breast = tested on: BT-549 breast
CAKI-1 renal = tested on: CAKI-1 renal
CCRF-CEM leukemia = tested on: CCRF-CEM leukemia
COLO 205 colon = tested on: COLO 205 colon
DU-145 prostate = tested on: DU-145 prostate
EKVX NSCLC = tested on: EKVX NSCLC
HCC-2998 colon = tested on: HCC-2998 colon
HCT-116 colon = tested on: HCT-116 colon
HCT-15 colon = tested on: HCT-15 colon
HL-60(TB) leukemia = tested on: HL-60(TB) leukemia
HOP-62 NSCLC = tested on: HOP-62 NSCLC
HOP-92 NSCLC = tested on: HOP-92 NSCLC
HS 578T breast = tested on: HS 578T breast
HT29 colon = tested on: HT29 colon
IGROV1 ovarian = tested on: IGROV1 ovarian
K-562 leukemia = tested on: K-562 leukemia
KM12 colon = tested on: KM12 colon
LOX IMVI melanoma = tested on: LOX IMVI melanoma
MALME-3M melanoma = tested on: MALME-3M melanoma
MCF7 breast = tested on: MCF7 breast
MDA-MB-231 breast = tested on: MDA-MB-231 breast
MDA-MB-435 = tested on: MDA-MB-435
MDA-N = tested on: MDA-N
MOLT-4 leukemia = tested on: MOLT-4 leukemia
NCI-H226 lung = tested on: NCI-H226 lung
NCI-H23 lung = tested on: NCI-H23 lung
NCI-H460 lung = tested on: NCI-H460 lung
NCI-H522 lung = tested on: NCI-H522 lung
NCI/ADR-RES ovarian = tested on: NCI/ADR-RES ovarian
OVCAR-3 ovarian = tested on: OVCAR-3 ovarian
OVCAR-4 ovarian = tested on: OVCAR-4 ovarian
OVCAR-5 ovarian = tested on: OVCAR-5 ovarian
OVCAR-8 ovarian = tested on: OVCAR-8 ovarian
RXF 393 renal = tested on: RXF 393 renal
SF-268 CNS = tested on: SF-268 CNS
SF-295 CNS = tested on: SF-295 CNS
SF-539 CNS = tested on: SF-539 CNS
SK-MEL-2 melanoma = tested on: SK-MEL-2 melanoma
SK-MEL-28 melanoma = tested on: SK-MEL-28 melanoma
SK-MEL-5 melanoma = tested on: SK-MEL-5 melanoma
SK-OV-3 ovarian = tested on: SK-OV-3 ovarian
SN12C renal = tested on: SN12C renal
SNB-19 CNS = tested on: SNB-19 CNS
SNB-75 CNS = tested on: SNB-75 CNS
SR leukemia = tested on: SR leukemia
SW-620 colon = tested on: SW-620 colon
T-47D breast = tested on: T-47D breast
TK-10 renal = tested on: TK-10 renal
UACC-257 melanoma = tested on: UACC-257 melanoma
UACC-62 melanoma = tested on: UACC-62 melanoma
UO-31 renal = tested on: UO-31 renal
M14 melanoma = tested on: M14 melanoma
PC-3 prostate = tested on: PC-3 prostate
RPMI-8226 leukemia = tested on: RPMI-8226 leukemia
U251 CNS = tested on: U251 CNS

Compound `COc1ccc(C(=O)c2[nH]c(Nc3ccc(Cl)cc3)c(C(=S)Nc3ccccc3)c2N)cc1` has a TGI (786-0 renal) greater than 100 µM, a TGI (A498 renal) greater than 100 µM and a TGI (A549 NSCLC) greater than 100 µM. For the same compound, the TGI (ACHN renal) was greater than 100 µM, the TGI (BT-549 breast) was greater than 100 µM and the TGI (CAKI-1 renal) was greater than 100 µM. It also gave a TGI (CCRF-CEM leukemia) greater than 100 µM, a TGI (COLO 205 colon) greater than 100 µM and a TGI (DU-145 prostate) greater than 100 µM. The TGI (EKVX NSCLC) was greater than 100 µM, the TGI (HCC-2998 colon) was greater than 100 µM and the TGI (HCT-116 colon) was greater than 100 µM. The TGI (HCT-15 colon) was greater than 100 µM, the TGI (HL-60(TB) leukemia) was greater than 100 µM and the TGI (HOP-62 NSCLC) was greater than 100 µM. The TGI (HOP-92 NSCLC) was greater than 100 µM, the TGI (HS 578T breast) was greater than 100 µM and the TGI (HT29 colon) was greater than 100 µM. For the same compound, the TGI (IGROV1 ovarian) was greater than 100 µM, the TGI (K-562 leukemia) was greater than 100 µM and the TGI (KM12 colon) was greater than 100 µM. The TGI (LOX IMVI melanoma) was greater than 100 µM, the TGI (MALME-3M melanoma) was greater than 100 µM and the TGI (MCF7 breast) was greater than 100 µM. For the same compound, the TGI (MDA-MB-231 breast) was greater than 100 µM, the TGI (MDA-MB-435) was greater than 100 µM and the TGI (MDA-N) was greater than 100 µM. For the same compound, the TGI (MOLT-4 leukemia) was greater than 100 µM, the TGI (NCI-H226 lung) was greater than 100 µM and the TGI (NCI-H23 lung) was greater than 100 µM. The TGI (NCI-H460 lung) was greater than 100 µM, the TGI (NCI-H522 lung) was greater than 100 µM and the TGI (NCI/ADR-RES ovarian) was greater than 100 µM. For the same compound, the TGI (OVCAR-3 ovarian) was greater than 100 µM, the TGI (OVCAR-4 ovarian) was 93.6 µM and the TGI (OVCAR-5 ovarian) was greater than 100 µM. It also gave a TGI (OVCAR-8 ovarian) greater than 100 µM, a TGI (RXF 393 renal) greater than 100 µM and a TGI (SF-268 CNS) greater than 100 µM. For the same compound, the TGI (SF-295 CNS) was greater than 100 µM, the TGI (SF-539 CNS) was greater than 100 µM and the TGI (SK-MEL-2 melanoma) was greater than 100 µM. For the same compound, the TGI (SK-MEL-28 melanoma) was 87 µM, the TGI (SK-MEL-5 melanoma) was greater than 100 µM and the TGI (SK-OV-3 ovarian) was greater than 100 µM. The TGI (SN12C renal) was greater than 100 µM, the TGI (SNB-19 CNS) was greater than 100 µM and the TGI (SNB-75 CNS) was greater than 100 µM. It also gave a TGI (SR leukemia) greater than 100 µM, a TGI (SW-620 colon) greater than 100 µM and a TGI (T-47D breast) greater than 100 µM. The TGI (TK-10 renal) was greater than 100 µM, the TGI (UACC-257 melanoma) was greater than 100 µM and the TGI (UACC-62 melanoma) was greater than 100 µM. The TGI (UO-31 renal) was greater than 100 µM.
Compound `CN(C)CCCN1c2ccccc2CCc2ccc([N+](=O)[O-])cc21` has a TGI (786-0 renal) greater than 100 µM, a TGI (A498 renal) of 40.3 µM and a TGI (A549 NSCLC) greater than 100 µM. For the same compound, the TGI (ACHN renal) was greater than 100 µM, the TGI (BT-549 breast) was 73.7 µM and the TGI (CAKI-1 renal) was greater than 100 µM. It also gave a TGI (CCRF-CEM leukemia) greater than 100 µM, a TGI (COLO 205 colon) of 32 µM and a TGI (DU-145 prostate) of 38.6 µM. The TGI (EKVX NSCLC) was greater than 100 µM, the TGI (HCC-2998 colon) was 28.5 µM and the TGI (HCT-116 colon) was greater than 100 µM. The TGI (HCT-15 colon) was 57.7 µM, the TGI (HL-60(TB) leukemia) was 75.6 µM and the TGI (HOP-62 NSCLC) was 62.9 µM. For the same compound, the TGI (HS 578T breast) was greater than 100 µM, the TGI (HT29 colon) was 46.5 µM and the TGI (IGROV1 ovarian) was 31 µM. The TGI (K-562 leukemia) was greater than 100 µM, the TGI (KM12 colon) was 33.8 µM and the TGI (LOX IMVI melanoma) was 31.5 µM. For the same compound, the TGI (M14 melanoma) was 30.6 µM, the TGI (MALME-3M melanoma) was 35.2 µM and the TGI (MCF7 breast) was 34.1 µM. The TGI (MDA-MB-231 breast) was greater than 100 µM, the TGI (MDA-MB-435) was 36 µM and the TGI (MDA-N) was 40.9 µM. For the same compound, the TGI (MOLT-4 leukemia) was greater than 100 µM, the TGI (NCI-H226 lung) was 90.4 µM and the TGI (NCI-H23 lung) was greater than 100 µM. The TGI (NCI-H460 lung) was 42.3 µM, the TGI (NCI-H522 lung) was 36.7 µM and the TGI (NCI/ADR-RES ovarian) was 42.1 µM. The TGI (OVCAR-3 ovarian) was greater than 100 µM, the TGI (OVCAR-4 ovarian) was greater than 100 µM and the TGI (OVCAR-5 ovarian) was greater than 100 µM. It also gave a TGI (OVCAR-8 ovarian) greater than 100 µM, a TGI (PC-3 prostate) greater than 100 µM and a TGI (RPMI-8226 leukemia) greater than 100 µM. The TGI (SF-268 CNS) was greater than 100 µM, the TGI (SF-295 CNS) was 34.3 µM and the TGI (SK-MEL-2 melanoma) was 43.9 µM. The TGI (SK-MEL-28 melanoma) was 77.9 µM, the TGI (SK-MEL-5 melanoma) was 31.4 µM and the TGI (SK-OV-3 ovarian) was greater than 100 µM. It also gave a TGI (SN12C renal) of 58 µM, a TGI (SNB-19 CNS) greater than 100 µM and a TGI (SR leukemia) greater than 100 µM. It also gave a TGI (SW-620 colon) greater than 100 µM, a TGI (T-47D breast) of 34.1 µM and a TGI (TK-10 renal) of 41.8 µM. For the same compound, the TGI (U251 CNS) was greater than 100 µM, the TGI (UACC-257 melanoma) was 31.8 µM and the TGI (UACC-62 melanoma) was 33.3 µM. For the same compound, the TGI (UO-31 renal) was 76 µM.
`Nc1ccc(CCN2CCN(CCCc3ccccc3)CC2)cc1` was tested, and the TGI (786-0 renal) was greater than 100 µM, the TGI (A498 renal) was greater than 100 µM and the TGI (A549 NSCLC) was greater than 100 µM. For the same compound, the TGI (ACHN renal) was greater than 100 µM, the TGI (BT-549 breast) was greater than 100 µM and the TGI (CAKI-1 renal) was greater than 100 µM. It also gave a TGI (CCRF-CEM leukemia) greater than 100 µM, a TGI (COLO 205 colon) greater than 100 µM and a TGI (DU-145 prostate) greater than 100 µM. For the same compound, the TGI (EKVX NSCLC) was greater than 100 µM, the TGI (HCC-2998 colon) was greater than 100 µM and the TGI (HCT-116 colon) was greater than 100 µM. It also gave a TGI (HCT-15 colon) greater than 100 µM, a TGI (HL-60(TB) leukemia) greater than 100 µM and a TGI (HOP-62 NSCLC) greater than 100 µM. It also gave a TGI (HS 578T breast) greater than 100 µM, a TGI (HT29 colon) greater than 100 µM and a TGI (IGROV1 ovarian) greater than 100 µM. It also gave a TGI (K-562 leukemia) greater than 100 µM, a TGI (KM12 colon) greater than 100 µM and a TGI (LOX IMVI melanoma) greater than 100 µM. For the same compound, the TGI (M14 melanoma) was greater than 100 µM, the TGI (MALME-3M melanoma) was greater than 100 µM and the TGI (MCF7 breast) was greater than 100 µM. It also gave a TGI (MDA-MB-231 breast) greater than 100 µM, a TGI (MDA-MB-435) greater than 100 µM and a TGI (MDA-N) greater than 100 µM. For the same compound, the TGI (MOLT-4 leukemia) was greater than 100 µM, the TGI (NCI-H226 lung) was greater than 100 µM and the TGI (NCI-H23 lung) was greater than 100 µM. It also gave a TGI (NCI-H460 lung) greater than 100 µM, a TGI (NCI-H522 lung) greater than 100 µM and a TGI (NCI/ADR-RES ovarian) greater than 100 µM. For the same compound, the TGI (OVCAR-3 ovarian) was greater than 100 µM, the TGI (OVCAR-4 ovarian) was greater than 100 µM and the TGI (OVCAR-5 ovarian) was greater than 100 µM. For the same compound, the TGI (OVCAR-8 ovarian) was greater than 100 µM, the TGI (PC-3 prostate) was greater than 100 µM and the TGI (RPMI-8226 leukemia) was greater than 100 µM. It also gave a TGI (SF-268 CNS) greater than 100 µM, a TGI (SF-295 CNS) greater than 100 µM and a TGI (SF-539 CNS) greater than 100 µM. The TGI (SK-MEL-2 melanoma) was greater than 100 µM, the TGI (SK-MEL-28 melanoma) was greater than 100 µM and the TGI (SK-MEL-5 melanoma) was greater than 100 µM. For the same compound, the TGI (SK-OV-3 ovarian) was greater than 100 µM, the TGI (SN12C renal) was greater than 100 µM and the TGI (SNB-19 CNS) was greater than 100 µM. It also gave a TGI (SR leukemia) greater than 100 µM, a TGI (SW-620 colon) greater than 100 µM and a TGI (T-47D breast) of 95.8 µM. For the same compound, the TGI (TK-10 renal) was greater than 100 µM, the TGI (U251 CNS) was greater than 100 µM and the TGI (UACC-257 melanoma) was greater than 100 µM. The TGI (UACC-62 melanoma) was greater than 100 µM and the TGI (UO-31 renal) was greater than 100 µM.
